# From PubChem BioAssay (NCI)
#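 Cells were grown in 96-well plates and exposed to each compound for 48 hours at five concentrations; endpoints were interpolated linearly between bracketing concentrations, or set to the highest concentration if not reached. Definition used: TGI = concentration required for complete inhibition of growth.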
# Legend:
# Test in all cases: DTP human tumour cell line panel, 48 h
# [1] = test system: 786-0 renal
# [2] = test system: A498 renal
# [3] = test system: A549 NSCLC
# [4] = test system: ACHN renal
# [5] = test system: BT-549 breast
# [6] = test system: CAKI-1 renal
# [7] = test system: CCRF-CEM leukemia
# [8] = test system: COLO 205 colon
# [9] = test system: DU-145 prostate
# [10] = test system: EKVX NSCLC
# [11] = test system: HCC-2998 colon
# [12] = test system: HCT-116 colon
# [13] = test system: HCT-15 colon
# [14] = test system: HOP-62 NSCLC
# [15] = test system: HT29 colon
# [16] = test system: IGROV1 ovarian
# [17] = test system: K-562 leukemia
# [18] = test system: KM12 colon
# [19] = test system: LOX IMVI melanoma
# [20] = test system: M14 melanoma
# [21] = test system: MALME-3M melanoma
# [22] = test system: MCF7 breast
# [23] = test system: MDA-MB-231 breast
# [24] = test system: MDA-MB-435
# [25] = test system: MDA-N
# [26] = test system: MOLT-4 leukemia
# [27] = test system: NCI-H226 lung
# [28] = test system: NCI-H23 lung
# [29] = test system: NCI-H460 lung
# [30] = test system: NCI-H522 lung
# [31] = test system: NCI/ADR-RES ovarian
# [32] = test system: OVCAR-4 ovarian
# [33] = test system: OVCAR-5 ovarian
# [34] = test system: OVCAR-8 ovarian
# [35] = test system: PC-3 prostate
# [36] = test system: RPMI-8226 leukemia
# [37] = test system: RXF 393 renal
# [38] = test system: SF-268 CNS
# [39] = test system: SF-295 CNS
# [40] = test system: SF-539 CNS
# [41] = test system: SK-MEL-2 melanoma
# [42] = test system: SK-MEL-28 melanoma
# [43] = test system: SK-MEL-5 melanoma
# [44] = test system: SK-OV-3 ovarian
# [45] = test system: SN12C renal
# [46] = test system: SNB-19 CNS
# [47] = test system: SNB-75 CNS
# [48] = test system: SR leukemia
# [49] = test system: SW-620 colon
# [50] = test system: T-47D breast
# [51] = test system: TK-10 renal
# [52] = test system: U251 CNS
# [53] = test system: UACC-257 melanoma
# [54] = test system: UACC-62 melanoma
# [55] = test system: UO-31 renal
# [56] = test system: HL-60(TB) leukemia
# [57] = test system: HOP-92 NSCLC
# [58] = test system: OVCAR-3 ovarian
# [59] = test system: HS 578T breast
structure (smiles),measurement,setting,value
N#Cc1c(-c2ccc(Cl)cc2)cc(-c2ccc(Nc3ccnc4cc(C(F)(F)F)ccc34)cc2)nc1N,TGI,[1],38.4 µM
same,TGI,[2],33.8 µM
same,TGI,[3],> 100 µM
same,TGI,[4],36.8 µM
same,TGI,[5],> 100 µM
same,TGI,[6],> 100 µM
same,TGI,[7],56.5 µM
same,TGI,[8],> 100 µM
same,TGI,[9],> 100 µM
same,TGI,[10],> 100 µM
same,TGI,[11],> 100 µM
same,TGI,[12],22.4 µM
same,TGI,[13],38.4 µM
same,TGI,[14],42.9 µM
same,TGI,[15],31.5 µM
same,TGI,[16],> 100 µM
same,TGI,[17],46.9 µM
same,TGI,[18],> 100 µM
same,TGI,[19],> 100 µM
same,TGI,[20],49.6 µM
same,TGI,[21],> 100 µM
same,TGI,[22],> 100 µM
same,TGI,[23],71.2 µM
same,TGI,[24],42.7 µM
same,TGI,[25],> 100 µM
same,TGI,[26],37.5 µM
same,TGI,[27],51.1 µM
same,TGI,[28],> 100 µM
same,TGI,[29],> 100 µM
same,TGI,[30],75.9 µM
same,TGI,[31],> 100 µM
same,TGI,[32],42 µM
same,TGI,[33],88.2 µM
same,TGI,[34],> 100 µM
same,TGI,[35],> 100 µM
same,TGI,[36],> 100 µM
same,TGI,[37],64.5 µM
same,TGI,[38],> 100 µM
same,TGI,[39],38.8 µM
same,TGI,[40],33.2 µM
same,TGI,[41],62.4 µM
same,TGI,[42],48.2 µM
same,TGI,[43],> 100 µM
same,TGI,[44],> 100 µM
same,TGI,[45],59 µM
same,TGI,[46],30.6 µM
same,TGI,[47],46.2 µM
same,TGI,[48],16.4 µM
same,TGI,[49],> 100 µM
same,TGI,[50],43.2 µM
same,TGI,[51],81.4 µM
same,TGI,[52],38 µM
same,TGI,[53],> 100 µM
same,TGI,[54],37.8 µM
same,TGI,[55],34.3 µM
CCCCCC(/C=C/C1CCC(=O)C1)OCOCCOC (centres undefined),TGI,[1],42.5 µM
same,TGI,[2],99.3 µM
same,TGI,[3],> 100 µM
same,TGI,[4],58.6 µM
same,TGI,[5],> 71 µM
same,TGI,[6],> 76.9 µM
same,TGI,[7],> 92.2 µM
same,TGI,[8],> 100 µM
same,TGI,[9],> 100 µM
same,TGI,[10],> 100 µM
same,TGI,[11],> 100 µM
same,TGI,[12],> 73.6 µM
same,TGI,[13],> 100 µM
same,TGI,[56],> 100 µM
same,TGI,[14],> 100 µM
same,TGI,[57],84.5 µM
same,TGI,[15],67.5 µM
same,TGI,[16],> 100 µM
same,TGI,[17],> 86.7 µM
same,TGI,[18],> 100 µM
same,TGI,[19],> 71 µM
same,TGI,[20],> 100 µM
same,TGI,[21],> 100 µM
same,TGI,[22],> 100 µM
same,TGI,[23],> 100 µM
same,TGI,[24],> 100 µM
same,TGI,[25],> 100 µM
same,TGI,[26],44.5 µM
same,TGI,[27],> 100 µM
same,TGI,[28],> 100 µM
same,TGI,[29],> 100 µM
same,TGI,[30],36 µM
same,TGI,[31],99.2 µM
same,TGI,[58],> 100 µM
same,TGI,[32],> 100 µM
same,TGI,[33],> 100 µM
same,TGI,[34],> 95.4 µM
same,TGI,[35],> 100 µM
same,TGI,[36],60.3 µM
same,TGI,[37],> 100 µM
same,TGI,[38],> 71.7 µM
same,TGI,[39],> 100 µM
same,TGI,[40],46.3 µM
same,TGI,[41],> 100 µM
same,TGI,[42],> 100 µM
same,TGI,[43],> 100 µM
same,TGI,[44],> 100 µM
same,TGI,[45],> 100 µM
same,TGI,[46],> 100 µM
same,TGI,[47],57.8 µM
same,TGI,[48],> 81.8 µM
same,TGI,[49],> 81.8 µM
same,TGI,[50],> 100 µM
same,TGI,[51],> 100 µM
same,TGI,[52],> 100 µM
same,TGI,[53],> 66.7 µM
same,TGI,[54],> 100 µM
same,TGI,[55],58.5 µM
COCCCN(Cc1cc(OC)c(OC)c(OC)c1)C(=S)Nc1cccc(Cl)c1,TGI,[1],85.4 µM
same,TGI,[2],> 100 µM
same,TGI,[3],> 100 µM
same,TGI,[4],> 100 µM
same,TGI,[5],64.9 µM
same,TGI,[6],> 100 µM
same,TGI,[7],55.7 µM
same,TGI,[8],> 100 µM
same,TGI,[9],> 100 µM
same,TGI,[10],52.4 µM
same,TGI,[11],> 100 µM
same,TGI,[12],45.1 µM
same,TGI,[13],61.1 µM
same,TGI,[56],45.4 µM
same,TGI,[14],> 100 µM
same,TGI,[57],53.7 µM
same,TGI,[15],50.2 µM
same,TGI,[16],> 100 µM
same,TGI,[17],69.2 µM
same,TGI,[18],67.6 µM
same,TGI,[19],51.1 µM
same,TGI,[20],51.8 µM
same,TGI,[22],62.1 µM
same,TGI,[23],83.5 µM
same,TGI,[24],48.4 µM
same,TGI,[25],45.7 µM
same,TGI,[26],33.1 µM
same,TGI,[29],> 100 µM
same,TGI,[31],63.1 µM
same,TGI,[58],> 100 µM
same,TGI,[32],91.4 µM
same,TGI,[33],75.1 µM
same,TGI,[34],72.7 µM
same,TGI,[35],68.2 µM
same,TGI,[36],37.4 µM
same,TGI,[37],96.4 µM
same,TGI,[38],63.6 µM
same,TGI,[39],> 100 µM
same,TGI,[40],> 100 µM
same,TGI,[41],52.1 µM
same,TGI,[42],85.1 µM
same,TGI,[43],30 µM
same,TGI,[44],> 100 µM
same,TGI,[45],92.5 µM
same,TGI,[46],> 100 µM
same,TGI,[47],70.7 µM
same,TGI,[49],> 100 µM
same,TGI,[50],49.2 µM
same,TGI,[51],> 100 µM
same,TGI,[52],> 100 µM
same,TGI,[53],48.5 µM
same,TGI,[54],44.7 µM
same,TGI,[55],90.5 µM
CC1=C(C)C(=O)C2=C(OCCO2)C1=O,TGI,[1],44.6 µM
same,TGI,[2],38.7 µM
same,TGI,[3],43.1 µM
same,TGI,[4],55.1 µM
same,TGI,[5],37.7 µM
same,TGI,[6],32.7 µM
same,TGI,[7],8.84 µM
same,TGI,[8],33.1 µM
same,TGI,[9],34 µM
same,TGI,[10],28.9 µM
same,TGI,[11],35 µM
same,TGI,[12],13.5 µM
same,TGI,[13],35.1 µM
same,TGI,[56],15 µM
same,TGI,[14],33.1 µM
same,TGI,[57],6.96 µM
same,TGI,[15],44.3 µM
same,TGI,[16],5.66 µM
same,TGI,[18],34.2 µM
same,TGI,[19],32.9 µM
same,TGI,[20],35.3 µM
same,TGI,[21],29.7 µM
same,TGI,[22],63.5 µM
same,TGI,[23],11.2 µM
same,TGI,[24],7.76 µM
same,TGI,[25],26.7 µM
same,TGI,[26],7.2 µM
same,TGI,[27],45 µM
same,TGI,[28],48 µM
same,TGI,[29],40.2 µM
same,TGI,[31],21.1 µM
same,TGI,[58],32.3 µM
same,TGI,[33],36.4 µM
same,TGI,[34],9.34 µM
same,TGI,[35],52.9 µM
same,TGI,[36],7.08 µM
same,TGI,[38],69.7 µM
same,TGI,[39],33 µM
same,TGI,[40],35 µM
same,TGI,[42],30.2 µM
same,TGI,[43],30.1 µM
same,TGI,[44],34.6 µM
same,TGI,[45],34.8 µM
same,TGI,[46],32.7 µM
same,TGI,[48],20.3 µM
same,TGI,[49],45.3 µM
same,TGI,[50],5.55 µM
same,TGI,[51],32.6 µM
same,TGI,[52],31.5 µM
same,TGI,[53],28.4 µM
same,TGI,[55],24 µM
C=C1C[C@@H](O)[C@@H](Br)C(C)(C)[C@@]12C=CC(O)(CBr)CC2 (some centres undefined),TGI,[1],> 100 µM
same,TGI,[3],> 100 µM
same,TGI,[4],> 100 µM
same,TGI,[5],83.7 µM
same,TGI,[6],> 100 µM
same,TGI,[7],64.2 µM
same,TGI,[9],> 100 µM
same,TGI,[10],79.2 µM
same,TGI,[12],> 100 µM
same,TGI,[13],> 100 µM
same,TGI,[56],> 100 µM
same,TGI,[14],> 100 µM
same,TGI,[57],61 µM
same,TGI,[59],> 100 µM
same,TGI,[15],> 100 µM
same,TGI,[16],> 100 µM
same,TGI,[17],> 100 µM
same,TGI,[18],15.1 µM
same,TGI,[19],> 100 µM
same,TGI,[20],> 100 µM
same,TGI,[21],> 100 µM
same,TGI,[22],> 100 µM
same,TGI,[23],93.5 µM
same,TGI,[24],> 100 µM
same,TGI,[25],> 100 µM
same,TGI,[26],76.2 µM
same,TGI,[27],> 100 µM
same,TGI,[28],> 100 µM
same,TGI,[29],> 100 µM
same,TGI,[30],> 100 µM
same,TGI,[58],> 100 µM
same,TGI,[32],> 100 µM
same,TGI,[33],> 100 µM
same,TGI,[34],> 100 µM
same,TGI,[35],9.72 µM
same,TGI,[36],70.7 µM
same,TGI,[37],> 100 µM
same,TGI,[38],> 100 µM
same,TGI,[39],> 100 µM
same,TGI,[41],> 100 µM
same,TGI,[42],> 100 µM
same,TGI,[43],> 100 µM
same,TGI,[45],> 100 µM
same,TGI,[46],> 100 µM
same,TGI,[48],77.6 µM
same,TGI,[49],> 100 µM
same,TGI,[50],> 100 µM
same,TGI,[51],> 100 µM
same,TGI,[52],> 100 µM
same,TGI,[53],> 100 µM
same,TGI,[54],> 100 µM
same,TGI,[55],> 100 µM
